Measurements reported in patent US6573279B1, “Isoquinoline derivatives or salts thereof” (priority 1999, dated 2003).
Structures can show the parent of a compound that is named as a salt.

Experiments:
[1] = Test on convulsion expression; type: in vivo, rat; conditions: 40 mg/kg i.v. (tail vein), once; male Wister rats; observed about 1 hour
Experimental: 3. Test on Convulsion Expression
Male rats of a Wister strain having a body weight of 250 to 350 g under awaking were fixed in a cage, and the test compound was administered from a tail vein. The test compound was administered at a dose of either 20 mg/kg (i.v.) or 40 mg/kg (i.v.) once for each rat. […] The influence of the test compound on the spontaneous behavior of the rat was evaluated by the fact whether or not the convulsion was noted within the observed period.

[2] = test system: right atrium sample, spontaneous cardiac rate; assay: Test on cardiac rate lowering effect (spontaneously beating isolated right atrium in Magnus tube); conditions: Cavia porcellus, 0.5 h; concentration lowering the spontaneous cardiac rate by 30%; guinea pig right atrium; data 30 minutes after addition
Experimental: 2. Test on Cardiac Rate Lowering Effect
The test on cardiac rate lowering effect was carried out by a method according to Walter, K., et al. Eur. J. Pharmacol., 104(1-2):9-18, 1984.
Male guinea pigs of a Hartley strain having a body weight of about 250 to 400 g were fainted away by knocking the head and killed by draining out the blood, and the heart was excised. A right atrium sample was prepared in a Tyrode's solution which was fully aerated with 95% oxygen and 5% carbon dioxide gas. The sample was applied to a hook made of stainless steel and suspended at a load tension of 1.0 g in a Magnus tube filled with a Tyrode's solution which was well aerated with 95% oxygen and 5% carbon dioxide gas, whereby the spontaneously pulsing cardiac rate was recorded. After suspending, the sample was allowed to stand for a stabilization period of 1 hour or more, the test compound was cumulatively added into a Magnus tube every 30 to 45 minutes and a concentration vs. effect curve was determined from the data after 30 minutes from the administration of the substance, whereby the effect was judged. The cardiac rate lowering effect was compared in terms of the concentration (EC30) of the substance which lowered the spontaneous cardiac rate to an extent of 30% from the data before the administration.

Q: Which melting point does the source give for `COc1cc2c(cc1OC)CN(C(=O)C1CCCN(CCNC(=O)c3ccc4c(c3)OCO4)C1)CC2` (racemic) (as salt: HCl) [Example 9, (±)-N-{2-[3-(6,7-dimethoxy-1,2,3,4-tetrahydrolsoquinoline-2-carbonyl)piperidino]ethyl}-3,4-methylenedioxybenzamide hydrochloride] here?
A: 182 to 185 °C

Q: For `COc1ccc(C(=O)NCCN2CCCC(C(=O)N3CCc4cc(OC)c(OC)cc4C3)C2)cc1OC` (racemic) (as salt: HCl) [Example 11, (±)-N-{2-[3-(6,7-dimethoxy-1,2,3,4-tetrahydroisoquinoline-2-carbonyl)-piperidino]ethyl}-3,4-dimethoxybenzamide hydrochloride], which melting point is on record?
A: 199 to 202 °C

Q: Which melting point does the source give for `COc1cc2c(cc1OC)CN(C(=O)[C@H]1CCCN(CCC(=O)Nc3ccc4c(c3)OCO4)C1)CC2` (racemic) (as salt: fumarate) (hydrate or solvate) [Example 53, (±)-3-[(S)-3-(6,7-dimethoxy-1,2,3,4-tetrahydroisoquinoline-2-carbonyl)piperidino]-N-(3,4-methylenedioxyphenyl)propanamide fumarate] here?
A: 164 to 166 °C

Q: For `COc1cc(NC(=O)CCN2CCCC(C(=O)N3CCc4cc(OC)c(OC)cc4C3)C2)cc(OC)c1` (racemic) (as salt: oxalate) [Example 3, (±)-3-[3-(6,7-dimethoxy-1,2,3,4-tetrahydroisoquinoline-2-carbonyl)piperidino]-N-(3,5-dimethoxyphenyl)propanamide 1/2 oxalate], which melting point is on record?
A: 187 to 192 °C

Q: Which melting point does the source give for `COc1cc2c(cc1OC)CN(C(=O)C1CCCN(CCCC(=O)Nc3ccc4c(c3)OCO4)C1)CC2` (racemic) (as salt: oxalate) [Example 7, (±)-4-[3-(6,7-dimethoxy-1,2,3,4-tetrahydroisoquinoline-2-carbonoyl)piperidino]-N-(3,4-methylenedioxyphenyl)butanamide oxalate] here?
A: 113 to 116 °C

Q: For `COc1cc2c(cc1OC)CN(C(=O)C1CCCN(CC(=O)Nc3ccc4c(c3)OCO4)C1)CC2` (racemic) (as salt: oxalate) [Example 8, (±)-2-[3-(6,7-dimethoxy-1,2,3,4-tetrahydroisoquinoline-2-carbonyl)piperidino]-N-(3,4-methylenedioxyphenyl)ethanamide oxalate], which melting point is on record?
A: 157 to 159 °C

Q: For `COc1cccc(C(=O)NCCN2CCCC(C(=O)N3CCc4cc(OC)c(OC)cc4C3)C2)c1` (racemic) (as salt: oxalate) [Example 10, (±)-N-{2-[3-(6,7-dimethoxy-1,2,3,4-tetrahydroisoquinoline-2-carbonyl)-piperidino]ethyl}-3-methoxybenzamide oxalate], which melting point is on record?
A: 120 to 123 °C

Q: For `COc1cc2c(cc1OC)CN(C(=O)C1CCCN(CCC(=O)Nc3ccc4c(c3)OCO4)C1)CC2` (racemic) [Example 2, (±)-3-[3-(6,7-dimethoxy-1,2,3,4-tetrahydroisoquinoline-2-carbonyl)piperidino]-N-(3,4-methylenedioxyphenyl)propanamide hydrochloride], which “General Findings (convulsion)” value [1] is on record?
A: No abnormal finding

Q: And the EC30 [2]?
A: 300 nM

Q: For `COc1ccc(NC(=O)CCN2CCCC(C(=O)N3CCc4cc(OC)c(OC)cc4C3)C2)cc1` (racemic) [Example 4, (±)-3-[3-(6,7-dimethoxy-1,2,3,4-tetrahydroisoquinoline-2-carbonyl)piperidino]-N-(4-methoxyphenyl)propanamide hydrochloride], which “General Findings (convulsion)” value [1] is on record?
A: No abnormal finding

Q: What about the EC30 [2] of the same compound?
A: 570 nM

Q: With `COc1cc2c(cc1OC)CN(C(=O)C1CCCN(CCNC(=O)c3ccc4c(c3)OCO4)C1)CC2` (racemic) [Example 9, (±)-N-{2-[3-(6,7-dimethoxy-1,2,3,4-tetrahydrolsoquinoline-2-carbonyl)piperidino]ethyl}-3,4-methylenedioxybenzamide hydrochloride] as the compound, how does the “General Findings (convulsion)” value [1] read?
A: No abnormal finding

Q: What about the EC30 [2] of the same compound?
A: 270 nM

Q: What does the source list for `COc1cccc(C(=O)NCCN2CCCC(C(=O)N3CCc4cc(OC)c(OC)cc4C3)C2)c1` (racemic) [Example 10, (±)-N-{2-[3-(6,7-dimethoxy-1,2,3,4-tetrahydroisoquinoline-2-carbonyl)-piperidino]ethyl}-3-methoxybenzamide oxalate]?
A: General Findings (convulsion) [1]: No abnormal finding; EC30 [2]: 270 nM

Q: Which results are given for `COc1cc2c(cc1OC)CN(C(=O)[C@@H]1CCCN(CCC(=O)Nc3ccc4c(c3)OCO4)C1)CC2` [Example 5, (−)-3-[(R)-3-(6,7-dimethoxy-1,2,3,4-tetrahydroisoquinoline-2-carbonyl)piperidino]-N-(3,4-methylenedioxyphenyl)propanamide L-tartrate]?
A: General Findings (convulsion) [1]: No abnormal finding; EC30 [2]: 380 nM

Q: For `COc1cc2c(cc1OC)CN(C(=O)[C@H]1CCCN(CCC(=O)Nc3ccc4c(c3)OCO4)C1)CC2` [Example 6, (+)-3-[(S)-3-(6,7-dimethoxy-1,2,3,4-tetrahydroisoquinoline-2-carbonyl)piperidino]-N-(3,4-methylenedioxyphenyl)propanamide D-tartrate], which “General Findings (convulsion)” value [1] is on record?
A: No abnormal finding

Q: What about the EC30 [2] of the same compound?
A: 320 nM

Q: With `COc1cc2c(cc1OC)CN(C(=O)C1CCCN(CCC(=O)Nc3cccc(Cl)c3)C1)CC2` (stereo not drawn) [Example 12] as the compound, how does the EC30 [2] read?
A: 270 nM

Q: Which “General Findings (convulsion)” value [1] does the source give for `COc1cc2c(cc1OC)CN(C(=O)C1CCCN(CCC(=O)Nc3ccc4ncsc4c3)C1)CC2` (stereo not drawn) [Example 14] here?
A: No abnormal finding

Q: And the EC30 [2]?
A: 470 nM

Q: Which melting point does the source give for `COc1cc2c(cc1OC)CN(C(=O)C1=CCCN(CCC(=O)Nc3ccc4c(c3)OCO4)C1)CC2` [Example 22] here?
A: 159 to 160 °C

Q: With `COc1ccc(NC(=O)CCN2CCC=C(C(=O)N3CCc4cc(OC)c(OC)cc4C3)C2)cc1` [Example 23] as the compound, how does the melting point read?
A: 155 to 164 °C

Q: Which “General Findings (convulsion)” value [1] does the source give for `COc1ccc(C(=O)NCCN2CCCC(C(=O)N3CCc4cc(OC)c(OC)cc4C3)C2)cc1C` (stereo not drawn) [Example 26] here?
A: No abnormal finding

Q: What about the EC30 [2] of the same compound?
A: 240 nM

Q: For `COc1ccc(C(=O)NCCN2CCCC(C(=O)N3CCc4cc(OC)c(OC)cc4C3)C2)cc1F` (stereo not drawn) [Example 27], which “General Findings (convulsion)” value [1] is on record?
A: No abnormal finding

Q: What about the EC30 [2] of the same compound?
A: 410 nM

Q: For `COc1cc(C(=O)NCCN2CCCC(C(=O)N3CCc4cc(OC)c(OC)cc4C3)C2)ccc1C` (stereo not drawn) [Example 28], which “General Findings (convulsion)” value [1] is on record?
A: No abnormal finding

Q: With `COc1cc2c(cc1OC)CN(C(=O)C1CCCN(CCNC(=O)c3ccc(F)c(F)c3)C1)CC2` (stereo not drawn) [Example 29] as the compound, how does the “General Findings (convulsion)” value [1] read?
A: No abnormal finding

Q: What about the EC30 [2] of the same compound?
A: 290 nM

Q: Which “General Findings (convulsion)” value [1] does the source give for `COc1cc2c(cc1OC)CN(C(=O)C1CCCN(CCNC(=O)c3ccc4c(c3)OCCO4)C1)CC2` (stereo not drawn) [Example 30] here?
A: No abnormal finding

Q: With `COc1cc2c(cc1OC)CN(C(=O)[C@@H]1CCCN(CCNC(=O)c3ccc4c(c3)OCO4)C1)CC2` [Example 37] as the compound, how does the melting point read?
A: 150 to 151 °C

Q: What about the “General Findings (convulsion)” value [1] of the same compound?
A: No abnormal finding

Q: What about the EC30 [2] of the same compound?
A: 300 nM

Q: Which results are given for `COc1cc2c(cc1OC)CN(C(=O)[C@H]1CCCN(CCNC(=O)c3ccc4c(c3)OCO4)C1)CC2` [Example 38]?
A: melting point: 154 to 155 °C; General Findings (convulsion) [1]: No abnormal finding; EC30 [2]: 290 nM

Q: With `COc1cc2c(cc1OC)CN(C(=O)C1CCCN(CCNC(=O)c3ccc(F)cc3)C1)CC2` (stereo not drawn) [Example 40] as the compound, how does the “General Findings (convulsion)” value [1] read?
A: No abnormal finding

Q: What about the EC30 [2] of the same compound?
A: 330 nM

Q: Which melting point does the source give for `COc1cc2c(cc1OC)CN(C(=O)C1=CCCN(CCNC(=O)c3ccc4c(c3)OCO4)C1)CC2` [Example 46] here?
A: 162 to 164 °C

Q: Which melting point does the source give for `COc1ccc(C(=O)NCCN2CCC=C(C(=O)N3CCc4cc(OC)c(OC)cc4C3)C2)cc1` [Example 47] here?
A: 153 to 154 °C

Q: What about the “General Findings (convulsion)” value [1] of the same compound?
A: No abnormal finding

Q: Which melting point does the source give for `COc1cc2c(cc1OC)CN(C(=O)C1CN(CCNC(=O)c3ccc4c(c3)OCO4)C1)CC2` [Example 48] here?
A: 131 to 133 °C

Q: With `COc1cc2c(cc1OC)CN(C(=O)[C@@H]1CCCN(CCNC(=O)c3ccc(F)cc3)C1)CC2` [Example 49] as the compound, how does the “General Findings (convulsion)” value [1] read?
A: No abnormal finding

Q: What about the EC30 [2] of the same compound?
A: 290 nM

Q: What does the source list for `COc1cc2c(cc1OC)CN(C(=O)[C@H]1CCCN(CCNC(=O)c3ccc(F)cc3)C1)CC2` [Example 50]?
A: General Findings (convulsion) [1]: No abnormal finding; EC30 [2]: 310 nM
